The values below come from US5747239A, “Synthetic peptides specific for the detection of antibodies to HCV, diagnosis of HCV infection and preventions thereof as vaccines” (United Biomedical, Inc., priority 1994, dated 1998).

What all share (assay type): binding, human
Assay [1] concerns antibodies to HCV. In words: Envelope/NS-1 peptide ELISA, anti-HCV positive plasmapheresis donors with elevated ALT (Panel III). The conditions noted are these: for % Relative Immunoreactivity: envelope/NS-1 peptides, Panel III (17 samples), peptide 254B as a standard. The method, then:
To select a panel of samples with reactivity to peptides from the envelope/NS-1 region, 97 such samples from anti-HCV positive plasmapheresis donors with elevated ALT levels were tested with peptide 254B. […] 17 samples with the greatest reactivity with peptide 254B were chosen to form a third panel (Panel III) to screen for the immunoreactivity of the other 20 peptides from the envelope/NS-1 region. The individual absorbance values of each of the 17 samples on the four peptides with the greatest reactivity, i.e. 255C (pep7), 254B (pep8), 247B (pep9), and 246D (pep10), are listed in Table 8b.
Background: In an ELISA, binding on a coated surface is turned into a signal by an enzyme label.

In assay [2] the test system is antibodies to HCV. In words: Envelope/NS-1 peptide ELISA, samples nonreactive on HCV core (VIIIE) and NS-4 (IIH) peptides. The method, then: In addition to screening on Panel III samples, the envelope/NS-1 peptides were also tested against samples from plasmapheresis donors who had elevated ALT levels but were non-reactive on the HCV from the core (e.g. peptide VIIIE) and NS-4 (e.g. peptide IIH) regions screening EIA. Six of these samples, which may represent early seroconversion samples, were reactive on one or more envelope/NS-1 peptide (Table 8d). The absorbance values on these HCV EIA nonreactive samples are lower than the values found for Panel III samples. In the case of Pep7 and Pep10, their shorter segments, 225B and 246C, respectively, gave greater immunoreactivity, in contrast to the performance on Panel III.

Assay [3] has as its system antibodies to HCV. Briefly: Peptide ELISA for relative immunoreactivity, 8 member HCV serum panel (Panel I). Conditions: NS-5 peptides (Table 12); Panel I; pep11 as a standard. The method, then: As an example to illustrate how relative (%) immunoreactivity for HCV synthetic peptides is measured, wells of 96-well plates are coated for 1 hour at 37° C., with each of the following peptides: IIH, V, VIIIE and pep11 at 5 ug/mL at 100 uL per well in 10 mM NaHCO3 buffer, pH 9.5. The peptide coated wells were then incubated with 250 uL of 3% by weight of gelatin in PBS in 37° C. for 1 hour to block non-specificprotein binding sites, followed by three washes with PBS containing 0.05% by volume of TWEEN 20 and then dried. The test specimens containing a panel of eight well-characterized HCV antibody positive patient sera were diluted with PBS containing 20% by volume normal goat serum, 1% by weight gelatin and 0.05% by volume TWEEN 20 at dilutions of 1:20 volume to volume, respectively. 200 uL of the diluted specimens were added to each of the wells and allowed to react for 15 minutes at 37° C.
The wells were then washed six times with 0.05% by volume TWEEN 20 in PBS in order to remove unbound antibodies. Horseradish peroxidase conjugated goat anti-human IgG was used as a second antibody tracer to bind with the HCV antibody-peptide antigen complex formed in positive wells. 100 uL of peroxidase labeled goat anti-human IgG at a dilution of 1:1800 in 1% by volume normal goat serum, 0.05% by volume TWEEN 20 in PBS was added to each well and incubated at 37° C. for another 15 minutes.
The wells were washed six times with 0.05% by volume TWEEN 20 PBS to remove unbound antibody and reacted with 100 uL of the substrate mixture containing 0.04% by weight orthophenylenediamine (OPD) and 0.12% by volume hydrogen peroxide in sodium citrate buffer, pH 5.0.
This substrate mixture was used to detect the peroxidase label by forming a colored product. Reactions were stopped by the addition of 100 uL of 1.0M H2 SO4 and the A492 mm measured. Results of relative immunoreactivity for each of the peptides obtained from this study are shown in Table A using peptide II H as the reference.

Assay [4] concerns antibodies to HCV. Briefly: NS-5 peptide ELISA, group of 5 HCV positive sera. The method, then:
Wells of 96-well plates were coated for 1 hour at 37° C. with each of the three peptides derived from the NS-5 region of HCV (designated as pep4, pep5 and pep6).

Assay [5] deals with antibodies to HCV. In words: EIA of NS-3 peptides before and after pH adjustment. The method, then:
Peptides dissolved at 1 mg/mL in H2 O, pH 4, were titrated to pH 11 by addition of diluted NaOH. After 5 min at pH 11, the pH of the peptide solution was brought down to 7.0 using diluted HCl. Immunoreactivity of the peptides thus treated was compared with reactivity prior to pH adjustment (Table 4E). Two-to three-fold increases in A492 nm were seen. Some previously non-reactive serum samples were able to react with pH adjusted peptides. For instance, serum sample 1, which is non-reactive to 261C, has an absorbance of 1401 mA when tested with the corresponding pH adjusted peptide.

Assay [6] has as its system antibodies to HCV. Briefly: Peptide ELISA for relative immunoreactivity, 8 member HCV serum panel (Panel I). The conditions noted are these: NS-3 peptides (Tables 4B-4D), relative to pep3 (279A).
Setting [7] is: sample 1 (first line, number not given).
Setting [8] is: serum sample 1, Ctrl (prior to pH adjustment).
Where [9] appears, read: serum sample 1, pH adj (pH 11 for 5 min, then 7.0).

On to “CLTVPASAYQVRNSTGLYHVTNDCPNSSIVYEAHDAILHTPGCVPCVREGNVSRC [255C]”, for which the Absorbance is 0.017 in assay [1] (Panel III sample 2); 0.235 in assay [1] (Panel III sample 3); 0.066 in assay [1] (Panel III sample 4); 0.711 in assay [1] (Panel III sample 5); 0.106 in assay [1] (Panel III sample 6); 0.784 in assay [1] (Panel III sample 7). Also, the Absorbance in assay [1] (Panel III sample 8) is listed as 0.037; in assay [1] (Panel III sample 9), 0.019; in assay [1] (Panel III sample 10) it was 0.313; in assay [1] (Panel III sample 11), 0.035; in assay [1] (Panel III sample 14), 0.047; in assay [1] (Panel III sample 15), 0.012. Further, the Absorbance in assay [1] (Panel III sample 16) is reported as 0.064; in assay [1] (Panel III sample 17), 0.077; in assay [2] (setting [7]), 0.098; in assay [2] (sample 2) it was 0.346; in assay [2] (sample 3), 0.300; in assay [2] (sample 4), 0.021. Moreover, the figures for the Absorbance in assay [2] (sample 5) and in assay [2] (sample 6) were 0.231 and 0.017, respectively. In assay [1], the “% Relative Immunoreactivity” value amounted to 51.4%.
“DAELIEANLLWRQEMGGNITRVESENKVVILDSFDPLVAEEDER [Pep5]”: the “% IP” value in assay [3] amounted to 47.6%. Besides, the “% Relative Immunoreactivity” value in assay [4] (NS-5 peptides, 5 HCV positive sera, Pep5 = 100) stood at 100.0%. Moreover, the “EIA reading per sample” value in assay [4] (Sample No. 1) came out at 2.942; in assay [4] (Sample No. 2) it was 0.370; in assay [4] (Sample No. 3), 0.616; in assay [4] (Sample No. 4), 1.316; in assay [4] (Sample No. 5), 1.783.
For “INSTALNCNESLNTGWLAGLIYQHKFNSSGCPERLASC [246C]”, the “% Relative Immunoreactivity” value in assay [1] came to 97.6%. Also, the Absorbance in assay [2] (setting [7]) came to 0.240; in assay [2] (sample 2), 0.015; in assay [2] (sample 3), 0.023; in assay [2] (sample 4) it was 0.046; in assay [2] (sample 5) it was 0.009.
On to “SVTVPHPNIEEVALSTTGEIPFYGKAIPLEVIKGGRHLIFCHSKKKCDEL [261C]”, for which, in assay [5] (after pH adjustment, compared with the standard pep3 (279A)), the relative immunopotency is on record as 68.5%. Further, the “A492 nm (mA) by EIA” value was found to be 6 mA in assay [5] (setting [8]); 1401 mA in assay [5] (setting [9]); 5 mA in assay [5] (serum sample 2, Ctrl); 499 mA in assay [5] (serum sample 2, pH adj); 24 mA in assay [5] (serum sample 3, Ctrl); 175 mA in assay [5] (serum sample 3, pH adj). Besides, the “A492 nm (mA) by EIA” value turned out to be 27 mA in assay [5] (serum sample 4, Ctrl) and 351 mA in assay [5] (serum sample 4, pH adj). In addition, in assay [6], the “% Relative Immunoreactivity” value came out at 3.2%.
For “VRNSTGLYHVTNDCPNSSIVYEAHDAILHTPGCPCVREGNVSRC [255B]”, the “% Relative Immunoreactivity” value in assay [1] came to 18.7%. Further, the figures for the Absorbance in assay [2] (sample 4) and in assay [2] (sample 6) were 0.021 and 0.012, respectively.
For the molecule “WHINSTALNCNESLNTGWLAGLIYQHKFNSSGCPERLASC [246D]”, the Absorbance in assay [1] (Panel III sample 1) was determined as 1.085; in assay [1] (Panel III sample 2) it was 0.068; in assay [1] (Panel III sample 3), 0.090; in assay [1] (Panel III sample 5), 0.077; in assay [1] (Panel III sample 9), 0.334; in assay [1] (Panel III sample 10), 1.488. Besides, the Absorbance in assay [1] (Panel III sample 11) is 0.045; in assay [1] (Panel III sample 12) it was 0.408; in assay [1] (Panel III sample 13), 0.451; in assay [1] (Panel III sample 14), 0.037; in assay [1] (Panel III sample 16), 0.810; in assay [1] (Panel III sample 17), 0.111. In addition, the Absorbance in assay [2] (setting [7]) worked out at 0.068; in assay [2] (sample 2), 0.028; in assay [2] (sample 3), 0.029; in assay [2] (sample 4), 0.049; in assay [2] (sample 5), 0.009; in assay [2] (sample 6), 0.102. In assay [1], the “% Relative Immunoreactivity” value is given as 98.6%.

B1: SVAATLGFGAYMSKAHGIDPNIRTGVRTITTGSPITYSTYGKFLADGGCSGGAYDIIICDECHSTDAT (peptide)
chain: SVAATLGFGAYMSKAHGIDPNIRTGVRTITTGSPITYSTYGKFLADGGCSGGAYDIIICDECHSTDAT
As to B1, in assay [6], the “% Relative Immunoreactivity” value was determined as 4.7%.

B2: GYKVLVLNPSVAATLGFGAYMSKAHGIDPNIRTGVRTITTGSPITYSTYGKFLADGGCSGGAYDIIICDECHSTDATSILGIGTVLDQAETAGARLVVLATATPPGSVTVPHPNIEEVAL (peptide)
chain: GYKVLVLNPSVAATLGFGAYMSKAHGIDPNIRTGVRTITTGSPITYSTYGKFLADGGCSGGAYDIIICDECHSTDATSILGIGTVLDQAETAGARLVVLATATPPGSVTVPHPNIEEVAL
Turning to B2, the “% Relative Immunoreactivity” value in assay [6] was determined as 2.8%.

B3: LVLNPSVAATLGFGAYMSKAHGIDPNIRTGVRTITTGSPITYSTYGKFLADGGCSGGAYDIIICDECHS (peptide)
chain: LVLNPSVAATLGFGAYMSKAHGIDPNIRTGVRTITTGSPITYSTYGKFLADGGCSGGAYDIIICDECHS
Regarding B3, the “A492 nm (mA) by EIA” value in assay [5] (setting [8]) is reported as 210 mA; in assay [5] (setting [9]), 591 mA; in assay [5] (serum sample 2, Ctrl), 37 mA; in assay [5] (serum sample 2, pH adj), 159 mA; in assay [5] (serum sample 3, Ctrl), 0 mA; in assay [5] (serum sample 3, pH adj) it was 217 mA. The “A492 nm (mA) by EIA” value came out at 124 mA in assay [5] (serum sample 4, Ctrl) and 311 mA in assay [5] (serum sample 4, pH adj). The “% Relative Immunoreactivity” value in assay [6] is reported as 11.1%.

B4: GYKVLVLNPSVAATLGFGAYMSKAHGIDPNIRTGVRTITTGSPITYSTYGKFLADGGCSGGAYDIIICDECHSTDAT (peptide)
chain: GYKVLVLNPSVAATLGFGAYMSKAHGIDPNIRTGVRTITTGSPITYSTYGKFLADGGCSGGAYDIIICDECHSTDAT
Regarding B4, the “% Relative Immunoreactivity” value in assay [6] came out at 5.1%.

B5: AHGIDPNIRTGVRTITTGSPITYSTYGKFLADGGCSGGAYDIIICDECHSTDATSILGIGTVLDQAETAGARLVVLATATPPGSVTVPHPNIEEVAL (peptide)
chain: AHGIDPNIRTGVRTITTGSPITYSTYGKFLADGGCSGGAYDIIICDECHSTDATSILGIGTVLDQAETAGARLVVLATATPPGSVTVPHPNIEEVAL
As to B5, in assay [6], the “% Relative Immunoreactivity” value worked out at 3.9%.

B6: TVLDQAETAGARLVVLATATPPGSVTVPHPNIEEVALSTTGEIPFYGKAIPLEVIKGGRHLIFCHSKKKCDEL (peptide)
chain: TVLDQAETAGARLVVLATATPPGSVTVPHPNIEEVALSTTGEIPFYGKAIPLEVIKGGRHLIFCHSKKKCDEL
Turning to B6, in assay [6], the “% Relative Immunoreactivity” value is 15.8%.
